Converted amounts (≈) assume the structure as drawn.

The subject of data set [1] is Septoria tritici (SEPTTR). The data set is described as follows: Synergy with pyraclostrobin or epoxiconazole against Septoria blotch. The following applies: alone.
Procedure: (§1) The compound was evaluated in mixtures with pyraclostrobin, or epoxiconazole for protectant and curative activity against wheat leaf rust (Puccinia triticina, PUCCRT), and Septoria blotch (Septoria tritici, SEPTTR).
(§2) The compound was formulated at six rates (8.1, 2.7, 0.9, 0.3, 0.1, 0.03 ppm) and applied to wheat plants alone and in all combinations of it with pyraclostrobin or epoxiconazole using the methods described in section “Fungicidal Activity” above. Plants were inoculated three days before treatment (3DC) or one day after treatment (1DP), incubated in a greenhouse until disease was expressed, and visually rated (reported as % DC Obs) as described above. The expected control was calculated using the Colby equation (Colby, S. R. Calculation of the synergistic and antagonistic response of herbicide combinations. Weeds 1967 15, 20-22.).
(§3) The following equation was used to calculate the expected activity of mixtures containing two active ingredients, A and B: Expected=A+B−(A×B/100)
(§4) A=observed efficacy of active ingredient A at the same concentration as used in the mixture
(§5) B=observed efficacy of active ingredient B at the same concentration as used in the mixture
The subject of data set [2] is Puccinia triticina (PUCCRT). Briefly: Synergy with pyraclostrobin or epoxiconazole against wheat leaf rust. The following applies: alone.
Procedure: as §1, §2, §3, §4, §5

Data set [3] concerns Magnaporthe grisea = Pyricularia oryzae (PYRIOR). Briefly: whole plant or invertebrate. The following applies: foliar, read-out: Activity against fungal diseases PYRIOR. Type of data set: in vivo.
Data set [4] deals with Septoria tritici (SEPTTR). Briefly: Septoria blotch of wheat foliar protectant test. Type of data set: in vivo. Particulars: Zymoseptoria tritici, read-out: Activity against fungal diseases SEPTTR; for pest or weed control at 200 ppm: 200 ppm foliar, inoculated one day after treatment. The gist of the method:
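Wheat seedlings (3-10 per pot) were sprayed to wet with formulated compound and inoculated next day with Septoria tritici spores. Plants then had 1 day in a dark dew chamber and 3 days in a lighted one before greenhouse incubation. Severity versus untreated inoculated plants gave percent control, scored *** 80-100%, ** 50-79%, * 0-49%.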

For data set [5], the system named is Puccinia recondita tritici (PUCCRT). The data set is described as follows: Leaf rust of wheat foliar protectant test. Type of data set: in vivo. The following applies: 200 ppm foliar, inoculated one day after treatment, read-out: Activity against fungal diseases PUCCRT. The method in brief:
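Wheat seedlings (3–8 per pot) were sprayed to wet with formulated compound and inoculated the next day with an aqueous Puccinia recondita tritici spore suspension. Severity was converted to % control versus untreated inoculated plants and rated *** 80–100%, ** 50–79%, * 0–49%.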

The subject of data set [6] is Colorado Potato Beetle (Leptinotarsa decemlineata, LPTNDE). Briefly: Colorado Potato Beetle larvae on sprayed tomato leaves. The data set is classed as in vivo. Particulars: foliar, 72 h, L2 larvae on sprayed tomato foliage, mortality after three days. How it is done:
Formulated test compounds were diluted and sprayed onto leaves of tomato plants. When dry, plant foliage was removed from the plant and placed in 8-well agar trays. Five L2 Colorado potato beetle larvae were placed in each well, and the trays were sealed and incubated at 26° C. Mortality was evaluated after three days.

The subject of data set [7] is Pseudoperonospora cubensis (PSPECU). The data set is described as follows: Cucumber downy mildew foliar protectant test. The data set is classed as in vivo. The following applies: 200 ppm foliar, inoculated one day after treatment, read-out: Activity against fungal diseases PSPECU. The method in brief: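 Cucumber seedlings, first true leaf 20-80% expanded, were sprayed to wetness with formulated compound and inoculated next day with aqueous sporangia suspension. Severity was converted to percent control versus untreated inoculated plants: ***=80-100%, **=50-79%, *=0-49%.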

The test system of a further data set is Caenorhabditis elegans. Particulars: 10 micrograms per milliliter agar, 24 h at 20° C.
Data set [8] in a line: Mouse oral exposure (gavage), 14 days. Set-up: species or system mice. Particulars: female, CD-1/Swiss derived albino, in vivo, 5% w/v in 0.5% carboxymethylcellulose, monitored 14 days. The procedure: The effect on mice of oral exposure was determined for compounds differing only in the number of fluorine substituents on the quinazoline ring, as shown in Table 5. Three CD-1/Swiss derived albino female mice were administered compounds by gavage as a 5% w/v mixture in 0.5% carboxymethylcellulose solution. The animals were monitored for 14 days.

Procedure for Caenorhabditis elegans: The activity of the compounds against Caenorhabditis elegans was determined by dissolving compounds in DMSO, then applying them to petri dishes containing Nematode Growth Medium agar to a final concentration of 10 μg compound per milliliter agar. Escherichia coli bacteria were grown on the plates to provide a food source for the larvae of Caenorhabditis elegans. The bacteria were heat-killed at 65° C. before compounds were added to the plates.
The plates with compound and heat-killed bacteria were infested with 10 microliter drops containing eggs from wild-type Caenorhabditis elegans worms. Adult worms were dissolved in KOH and bleach and washed in Ringers solution to generate the egg suspension. Each compound was screened with approximately 400 eggs, divided between two petri dishes. Egg hatching was evaluated after 24 h at 20° C. Mortality was averaged over the two plates.

Consider `Fc1ccc([C@]2(Cn3cncn3)O[C@H]2c2ccccc2Cl)cc1` (racemic) [epoxiconazole], for which the “% DC Obs” value in data set [1] (1DP SEPTTR, 0.3 ppm) is reported as 36%; in data set [1] (3DC SEPTTR, 0.3 ppm), 35%; in data set [2] (1DP PUCCRT, 0.1 ppm) it was 0%; in data set [2] (3DC PUCCRT, 0.1 ppm), 13%.
In the case of `Fc1ccc(F)c2c(NCCc3ccc(Oc4ccc(C(F)(F)F)cn4)cc3)ncnc12` [Compound 1], the pest or weed control at 200 ppm in [3], in data set [4], in data set [5] and in data set [7] was 80 to 100% in each case. This compound registered an LC90 in data set [6] of 0.49 µg/mL (≈ 1.1 µM).
As to `Fc1ccc(F)c2c(NCCc3ccc(Oc4nccc(C(F)(F)F)n4)cc3)ncnc12` [Compound 3], the Percent mortality in the data set on Caenorhabditis elegans is 100%. Also, the pest or weed control at 200 ppm in [3] was 50 to 79%; in data set [4] it was 80 to 100%; in data set [5] it was 80 to 100%; in data set [7], 80 to 100%.
For orientation: LD50 means the dose expected to kill half of the subjects tested. A low value points to greater toxicity. `Fc1ccc(F)c2c(NCCc3ccc(Oc4cc(C(F)(F)F)ccn4)cc3)ncnc12` [Compound 6] came in with an LD50 at 14 days in data set [8] of 100 to 500 mg/kg. In addition, the pest or weed control at 200 ppm in data set [3], in data set [4], in data set [5] and in data set [7] was 80 to 100% throughout. This compound also gave an LC90 in data set [6] of 12.5 to 50 µg/mL (≈ 28 to 112 µM).
As for `COc1cc(CCNc2ncnc3c(F)ccc(F)c23)ccc1Oc1cc(C(F)(F)F)ccn1` [Compound 15], the pest or weed control at 200 ppm in [3], in [4], in data set [5] and in [7] was 80 to 100% each time. The “% DC Obs” value in [1] (1DP SEPTTR, 2.7 ppm) stood at 31%; in [1] (3DC SEPTTR, 0.9 ppm) it was 22%; in data set [2] (1DP PUCCRT, 0.3 ppm), 33%; in data set [2] (3DC PUCCRT, 0.3 ppm), 6%; in data set [2] (3DC PUCCRT, 0.9 ppm), 52%.
Compound `Fc1cc(F)c2ncnc(NCCc3ccc(Oc4cc(C(F)(F)F)ccn4)cc3)c2c1F` [Compound 31] showed an LD50 at 14 days in [8] of over 500 mg/kg. In addition, the pest or weed control at 200 ppm in data set [3], in [4], in data set [5] and in data set [7] was 80 to 100% throughout. Moreover, the LC90 in data set [6] lay within 50 to 200 µg/mL (≈ 108 to 431 µM).
Turning to `COc1ccc(CCNc2ncnc3c(F)ccc(F)c23)c(C)c1` [Compound 42], the Percent mortality in the data set with Caenorhabditis elegans is recorded as 6%. The pest or weed control at 200 ppm in data set [3], in data set [4], in [5] and in data set [7] was 80 to 100% throughout.
Regarding `Fc1cc(F)c2ncnc(NCCc3ccc(Oc4ccc(C(F)(F)F)cn4)cc3)c2c1F` [Compound 74], the pest or weed control at 200 ppm in data set [3], in [4], in data set [5] and in [7] was 80 to 100% throughout. The LC90 in data set [6] was found to be 1 µg/mL (≈ 2.15 µM).
Take `Fc1cc(Oc2cc(C(F)(F)F)ccn2)ccc1CCNc1ncnc2c(F)ccc(F)c12` [Compound 76]: in the data set on Caenorhabditis elegans, the Percent mortality came to 100%. For the same compound, the pest or weed control at 200 ppm in data set [3], in data set [4], in data set [5] and in data set [7] was 80 to 100% throughout.
As for `Fc1cc(F)c2ncnc(NCCc3ccc(Oc4cnccc4C(F)(F)F)c(Cl)c3)c2c1F` [Compound 93], the Percent mortality in the data set with Caenorhabditis elegans was determined as 100%. Moreover, the pest or weed control at 200 ppm in [3], in data set [4] and in [5] was 80 to 100% each time.
Take `[O-][n+]1ccc(C(F)(F)F)c(Oc2ccc(CCNc3ncnc4c(F)ccc(F)c34)cc2)c1` [Compound 115]: the Percent mortality in the data set with Caenorhabditis elegans was found to be 100%. Moreover, the pest or weed control at 200 ppm in data set [3], in data set [4], in data set [5] and in data set [7] was 80 to 100% in each case.
`N#Cc1ccc(Oc2ccc(CCNc3ncnc4c(F)ccc(F)c34)cc2)nc1` [Compound 124]: the pest or weed control at 200 ppm in data set [3], in data set [5] and in data set [7] was 80 to 100% throughout. Besides, in [4] (foliar, Tested at 25 ppm (footnote b)), the pest or weed control at 25 ppm was in the range of 50 to 79%. Further, the LC90 in data set [6] was in the range of 3.1 to 12.5 µg/mL (≈ 7.68 to 31 µM).
`N#Cc1cc(Cl)ncc1Oc1ccc(CCNc2ncnc3c(F)ccc(F)c23)cc1` [Compound 125] showed a Percent mortality in the data set on Caenorhabditis elegans of 0%. For the same compound, the pest or weed control at 200 ppm in [3], in [4], in [5] and in [7] was 80 to 100% in each case.
By melting point is commonly meant the temperature, or range, at which the solid turns liquid. The compound `Fc1ccc(F)c2c(NCCc3ccc(Oc4ccnc(C(F)(F)F)c4)cc3)ncnc12` [Example 11, (5,8-Difluoroquinazolin-4-yl)-{2-[4-(2-trifluoromethylpyridin-4-yloxy)-phenyl]-ethyl}-amine] displayed a melting point of 95 to 96 °C.
As to `Fc1cccc2c(NCCc3ccc(Oc4cc(C(F)(F)F)ccn4)cc3)ncnc12` [drawing 198, reference compound], the median lethal dose (LD50) at 14 days in [8] is under 100 mg/kg.
Take `COC(=O)N(OC)c1ccccc1COc1ccn(-c2ccc(Cl)cc2)n1` [pyraclostrobin]: the “% DC Obs” value is reported as 49% in data set [1] (1DP SEPTTR, 0.3 ppm); 14% in [1] (3DC SEPTTR, 0.1 ppm); 8% in data set [2] (1DP PUCCRT, 0.1 ppm); 4% in [2] (3DC PUCCRT, 0.3 ppm).
In the data set on Caenorhabditis elegans, ivermectin [reference compound] showed a Percent mortality of 95%.

(Values after patent publication US9000162B2, “5,8-difluoro-4-(2-(4-(heteroaryloxy)-phenyl)ethylamino)quinazolines and their use as agrochemicals” (Dow AgroSciences LLC, priority 2008, dated 2015).)
